Measurements reported in paper PMC3731320, “Identification of Benzimidazole Diamides as Selective Inhibitors of the Nucleotide-Binding Oligomerization Domain 2 (NOD2) Signaling Pathway” (PLoS ONE, 2013).
Entries after “also recorded” stand apart in the source; their conditions may differ.

Tests used:
[1] = system: NOD2; assay: MDP-stimulated IL-8 release in 293/hNOD2 cells (HTRF); format: cell-based, human; conditions: Homo sapiens
Experimental: (§1) After 24 hours the amount of IL-8 secreted into the medium was determined by homogeneous time resolved fluorescence (HTRF) assay by the direct addition of a 1:1 mix of europium cryptate and XL665-conjugated anti-IL-8 antibodies according to the manufacturer's instructions (Cisbio).

[2] = system: NOD1; assay: iE-DAP-stimulated IL-8 release in 293/hNOD1 cells (HTRF); format: cell-based, human; conditions: Homo sapiens; IL-8 end-point; 60 ng/mL iE-DAP; read-out: IC50 293/hNOD1 iE-DAP
Experimental: as §1

[3] = system: NOD1; assay: Tri-DAP-stimulated IL-8 release in HCT116 cells (endogenous NOD1); format: cell-based, human
Experimental: (§2) Compound activity on endogenous NOD1 and NOD2 receptors was determined by inhibition of either Tri-DAP or MDP-stimulated IL-8 release, respectively, using HCT116 human colon carcinoma cells. […] The cells were maintained in DMEM high glucose medium supplemented with 25 mM HEPES and 10% FBS. For assay, cells were seeded into 96 well plates (90,000 cells/well) in DMEM containing 1% FBS and pre-incubated with compounds for 1 hour before addition of either 1 μg/mL MDP or 25 μg/mL Tri-DAP. The level of IL-8 released into medium after 24-hour incubation was determined by HTRF assay as described above and fluorescence measured on an Envision model 2102 multilabel plate reader (Perkin Elmer).

[4] = system: NOD2; assay: MDP-stimulated IL-8 release in HCT116 cells (endogenous NOD2); format: cell-based, human
Experimental: as §2

[5] = system: TNFR1; assay: TNFα-stimulated (TNFR1-induced) IL-8 release in 293/hNOD2 cells; format: cell-based, human; conditions: Homo sapiens; IL-8 end-point; 20 ng/mL rhTNFα; read-out: IC50 293/hNOD2 TNFα
Experimental: as §1

[6] = system: TLR2; assay: Pam2CSK4-stimulated IL-8 release in 293/hTLR2 cells; format: cell-based, human; conditions: Homo sapiens; IL-8 end-point; 3–10 ng/mL Pam2CSK4; read-out: IC50 293/hTLR2 Pam2CSK4
Experimental: as §1

[7] = target: T1, full length human FLAG-6His tagged RIP2 (Homo sapiens, UniProt O43353); assay: RIP2 kinase autophosphorylation assay (ADP-Glo); format: biochemical; conditions: autophosphorylation of RIPK2; 10 μM ATP
T1 construct: autophosphorylation of full length human FLAG-6His tagged RIP2; FLAG; 6His; made in house
T1 sequence (O43353 whole entry): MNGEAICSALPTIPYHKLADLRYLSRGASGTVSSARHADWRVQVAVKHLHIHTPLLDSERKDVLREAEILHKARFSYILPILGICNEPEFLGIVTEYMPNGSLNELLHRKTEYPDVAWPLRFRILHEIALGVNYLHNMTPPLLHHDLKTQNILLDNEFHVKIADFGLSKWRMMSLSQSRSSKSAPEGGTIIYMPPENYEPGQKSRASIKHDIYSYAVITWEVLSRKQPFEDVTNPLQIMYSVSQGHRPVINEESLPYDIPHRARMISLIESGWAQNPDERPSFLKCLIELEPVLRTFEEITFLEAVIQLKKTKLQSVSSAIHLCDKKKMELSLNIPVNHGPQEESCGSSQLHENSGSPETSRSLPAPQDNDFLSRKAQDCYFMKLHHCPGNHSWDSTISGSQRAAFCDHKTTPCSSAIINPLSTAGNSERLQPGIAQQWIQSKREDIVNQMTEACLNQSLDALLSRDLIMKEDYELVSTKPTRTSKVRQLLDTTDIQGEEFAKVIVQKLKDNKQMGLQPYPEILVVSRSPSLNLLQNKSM
Experimental: Direct effects of compounds on RIP2 kinase activity was determined by autophosphorylation of full length human FLAG-6His tagged RIP2 expressed and purified from baculovirus. Enzyme was pre-incubated with compounds in assay buffer (50 mM HEPES pH 7.5, 25 mM MgCl2, 0.05%[w/v] CHAPS, 1 mM DTT and 0.05 mg/mL BSA) in 384-well plates, and then incubated with 10μM ATP for 2 hours at room temperature. The amount of ADP generated was measured using the ADP-Glo universal ADP detection assay for kinases (Promega) and luminescence quantified on a ViewLux imager.

[8] = system: NOD2; assay: Western blot of MAPK phosphorylation and IκBα in MDP-stimulated 293/hNOD2 cells; format: cell-based, human; conditions: GSK669 at 1 and 10 μM
Experimental: Confluent cultures of 293/-hNOD1 and -hNOD2 cells in 24-well plates were serum-starved over-night. The next day, cells were pre-incubated for 1 hour with compound and then stimulated for 1 hour with either 50 μg/mL Tri-DAP or 25 μg/mL MDP, respectively. Whole cell lysates were prepared in 1X cell lysis buffer (Cell Signaling Technology) containing additional inhibitors of aspartic, cysteine and serine proteases and aminopeptidases (protease inhibitor cocktail set III, EMD Biosciences) and inhibitors of multiple phosphatases (phosphatase inhibitor cocktail sets II and III, Sigma-Aldrich). The levels of phosphorylated and total p38, JNK, ERK1/2 and total IκBα were determined by immunoblotting of ∼20 μg protein per sample using the following primary antibodies: phospho-p38 MAPK (12F8, #4631), p38 MAPK (#9212), phospho-JNK (#9251), JNK (#9252) and IκBα (#9242) all purchased from Cell Signaling Technology, and phospho-ERK1/2 (sc-7383) and ERK1/2 (sc-94) antibodies from Santa Cruz Biotechnology.

[9] = system: NOD2; assay: MDP-stimulated cytokine release in primary human monocytes; format: cell-based; conditions: MDP 0.1 μg/mL
Experimental: (§3) […] The concentration of IL-1β, IL-6 and TNFα in medium samples collected after 24-hour treatment was determined using the MS6000 human pro-inflammatory-4 II tissue culture kit (Meso Scale Discovery). The IL-8 concentration was determined by HTRF.

[10] = system: TLR2; assay: Pam2CSK4-stimulated IL-8 release in primary human monocytes; format: cell-based; conditions: Pam2CSK4 100 pg/mL; GSK717 0.5–16 μM, RIP2 inhibitor 0.05–1.6 μM
[11] = system: NOD2 and TLR2; assay: IL-8 release in primary human monocytes co-stimulated with MDP and Pam2CSK4 (NOD2-TLR2 synergy); format: cell-based; conditions: MDP 0.1 μg/mL + Pam2CSK4 100 pg/mL; listed as GSK717
Experimental: as §3

Structure (SMILES) | IC50 ([1]; IL-8 end-point, 30 ng/mL MDP, read-out: IC50 293/hNOD2 MDP) | IC50 ([1]; MDP-stimulated IL-8 production assay in 293/hNOD2 cells, Figures 4 and 5, read-out: NOD2 IC50) | IC50 [2] | IC50 ([3]; Homo sapiens, HCT-116, IL-8 end-point, 25 μg/mL Tri-DAP) | effect on IL-8 secretion induced by Tri-DAP in HCT116 cells ([3]; Tri-DAP 25 μg/mL, 1 hour pre-treatment) | IC50 ([4]; Homo sapiens, HCT-116, IL-8 end-point, 1 μg/mL MDP) | effect on IL-8 secretion induced by MDP in HCT116 cells ([4]; MDP 1 μg/mL, 1 hour pre-treatment) | IC50 [5] | IC50 [6] | IC50 [7] | effect on MDP-induced p-p38, p-JNK and total IκBα [8] | effect on MDP-stimulated IL-8 release in monocytes ([9]; GSK717 0.5–16 μM, RIP2 inhibitor 0.05–1.6 μM) | effect on MDP-stimulated cytokine secretion, single concentration ([9]; primary human monocytes, compound 5 μM, IL-1β, IL-6, IL-8, TNFα, 24 hours) | effect on Pam2CSK4-stimulated IL-8 release in monocytes [10] | effect on synergistic IL-8 response of co-stimulated monocytes [11]
CC(C)c1ccc(NC(=O)Cn2c(CCNC(=O)c3ccccc3)nc3ccccc32)cc1 [Compound 2, N-(2-(1-(2-((4-isopropylphenyl)amino)-2-oxoethyl)-1H-benzo[d]imidazol-2-yl)ethyl)benzamide] | 5 µM | 4 ± 3.9 µM | > 50 µM | > 50 µM | had no effect | 1.1 ± 0.7 µM | dose-dependently inhibited | > 100 µM | > 100 µM | > 100 µM | more modest inhibitory effects |  |  |  | 
CN(CCc1nc2ccccc2n1CC(=O)Nc1ccc2c(c1)CCC2)C(=O)c1ccccc1 [Compound 29, N-(2-(1-(2-((2,3-dihydro-1H-inden-5-yl)amino)-2-oxoethyl)-1H-benzo[d]imidazol-2-yl)ethyl)-N-methylbenzamide] |  |  |  |  |  |  |  |  |  |  |  | prevented | abrogated the stimulatory effect of MDP | but not Pam2CSK4-stimulated IL-8 release | blocks synergy between NOD2 and TLR2; also recorded: abolished the clear synergistic IL-8 response
